# Measurements published in PMC3355227 (ACS Chemical Biology, 2012).
# Where a SMILES comes first, the peptide text is derived from it. Where no end group is shown, it is not given here. [ ]: non-standard residue; d: D form. The star is where a group is joined. pT = C[C@@H](OP(=O)(O)O)[C@H](N)C(=O)O; Hyp = O=C(O)[C@@H]1C[C@@H](O)CN1; Butyl(4-Ph) = c1ccc(CCCC*)cc1
# Experiments:
# [1] = biological target: HA-EGFP-Plk1 (Plk1 PBD) in mitotic 293A cell lysates (Homo sapiens, UniProt P53350); experiment: ELISA-based PBD-binding inhibition assay; conditions: relative comparison; oxime libraries tested as crude reaction mixtures
# Chain of HA-EGFP-Plk1 (Plk1 PBD) in mitotic 293A cell lysates (P53350 whole entry): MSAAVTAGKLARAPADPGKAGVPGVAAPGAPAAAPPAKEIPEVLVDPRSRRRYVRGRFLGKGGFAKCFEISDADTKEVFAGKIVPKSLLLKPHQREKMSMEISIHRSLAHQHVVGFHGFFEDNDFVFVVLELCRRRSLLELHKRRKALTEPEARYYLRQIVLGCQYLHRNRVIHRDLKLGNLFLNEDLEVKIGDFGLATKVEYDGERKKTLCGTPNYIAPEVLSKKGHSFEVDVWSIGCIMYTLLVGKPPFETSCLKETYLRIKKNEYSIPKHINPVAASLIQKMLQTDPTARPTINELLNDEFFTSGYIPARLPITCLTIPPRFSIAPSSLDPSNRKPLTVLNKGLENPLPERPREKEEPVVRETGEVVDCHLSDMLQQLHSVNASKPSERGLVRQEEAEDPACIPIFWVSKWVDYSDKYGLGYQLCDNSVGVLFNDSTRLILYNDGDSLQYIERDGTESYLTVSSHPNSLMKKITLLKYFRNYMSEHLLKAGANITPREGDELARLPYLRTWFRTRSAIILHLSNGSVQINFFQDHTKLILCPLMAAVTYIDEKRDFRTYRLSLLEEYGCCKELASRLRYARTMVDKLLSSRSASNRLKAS
# Flag-Plk2 (K108M) = Flag-Plk2 (K108M) (Mus musculus, UniProt P53351, K108M); experiment: Peptide pull-down assay from mitotic 293T cell lysates, Plk2; conditions: bead-immobilized peptide, anti-Flag immunoblot
# Chain of Flag-Plk2 (K108M) (P53351 whole entry K108M): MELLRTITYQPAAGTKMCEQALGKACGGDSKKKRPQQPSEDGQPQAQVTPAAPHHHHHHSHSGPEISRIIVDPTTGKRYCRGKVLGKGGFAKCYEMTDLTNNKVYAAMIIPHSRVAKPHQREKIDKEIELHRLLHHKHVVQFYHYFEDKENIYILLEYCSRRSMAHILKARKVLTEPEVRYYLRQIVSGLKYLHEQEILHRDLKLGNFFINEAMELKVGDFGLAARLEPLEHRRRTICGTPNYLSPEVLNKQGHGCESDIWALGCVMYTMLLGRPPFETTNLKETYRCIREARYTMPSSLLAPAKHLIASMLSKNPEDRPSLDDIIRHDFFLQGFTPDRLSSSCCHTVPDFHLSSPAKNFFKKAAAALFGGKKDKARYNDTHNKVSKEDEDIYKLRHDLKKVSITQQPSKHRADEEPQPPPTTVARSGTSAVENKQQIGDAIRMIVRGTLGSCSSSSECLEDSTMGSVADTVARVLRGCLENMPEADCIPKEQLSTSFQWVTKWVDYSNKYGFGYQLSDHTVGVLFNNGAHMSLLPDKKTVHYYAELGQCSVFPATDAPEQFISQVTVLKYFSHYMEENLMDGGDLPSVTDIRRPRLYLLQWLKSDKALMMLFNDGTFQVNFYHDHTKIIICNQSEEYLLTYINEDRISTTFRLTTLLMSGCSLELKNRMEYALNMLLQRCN
Compound,relative binding affinity in ELISA-based Plk1 inhibition assay [1],band for binding to Plk2 in pull-down (Flag-Plk2 (K108M)),band for binding to Plk2 in pull-down (Flag-Plk2 (K108M); listed as 7*)
8(S4A): variant of 8 with the serine residue replaced by alanine (P(Butyl(4-Ph))LHA[pT]),significant loss of affinity,,
CC(=O)N1C[C@H](OCCCCc2ccccc2)C[C@H]1C(=O)N[C@@H](CC(C)C)C(=O)N[C@@H](Cc1c[nH]cn1)C(=O)N[C@@H](C)C(=O)N[C@H](C(N)=O)[C@@H](C)OP(=O)(O)O [7(S4A)] (Ac-[Hyp](Butyl(4-Ph))LHA[pT]-NH2; N-terminus and C-terminus assumed),significant loss of affinity,,
CC(=O)N1C[C@H](OCCCCc2ccccc2)C[C@H]1C(=O)N[C@@H](CC(C)C)C(=O)N[C@@H](Cc1c[nH]cn1)C(=O)N[C@@H](CO)C(=O)N[C@H](C(N)=O)[C@@H](C)OP(=O)(O)O [compound 7],,faint band,not seen
